Laboratory results: US8143296B2, “Thiazole-based compound and inhibitor of T-type calcium channel containing the same” (Korea Institute of Science and Technology, priority 2006, dated 2012)

What was measured:
[1] = biological target: T1, α1G T-type calcium channel (Homo sapiens, UniProt O43497); experiment: T-type calcium channel activity in HEK293 cells by electrophysiological whole cell patch clamp method; type: cell-based; conditions: HEK293 cells expressing α1G
T1 construct: host or cells: HEK293
Experimental: The selected compounds were used in a second assay for T-type calcium channel inhibiting activity using electrophysiological whole cell patch clamp method, wherein mammal HEK293 cell lines (originated from human kidney carcinoma cells) which specifically expresses α1G of T-type calcium channel was used for the second assay. […] 10% Fetal bovine serum (FBS) and 1% penicillin/streptomycin (v/v) were added to Dulbecco's modified Eagle's medium (DMEM), to be used as a media solution. The cells were cultured in incubator under the wet condition of 95% air/5% CO2 and temperature of 36.5° C. The media solution was refreshed every 3 or 4 days, and the cells were sub-cultured every week. Only the cells which express α1G T-type calcium channel were cultured using G-418 (0.5 mg/ml) solution. The recording to the cells used in the T-type calcium channel activity analysis was conducted at 2-7 days after the cells were culturing on a cover slip coated with poly-L-lysine (0.5 mg/ml) when conducting every sub-culture. For analysis at a single cell level, the T-type calcium channel current was measured by an electrophysiological whole cell patch clamp method using EPC-9 amplifier (HEKA, German). […] Thereafter, the cell membrane potential was fixed to −100 mV, and then the inward current due to the T-type calcium channel activity when […] to −30 mV (50 ms duration) was measured every 10 seconds. […]

[2] = biological target: T1, α1G T-type calcium channel; experiment: Assay for % inhibiting activity against T-type calcium channel using FDSS6000; type: cell-based; conditions: HEK293, 10 μM; HEK293 cells expressing α1G; Table 4 (Chemical Formula 3 series)
Summary of the method: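 HEK293 cells stably expressing α1G and Kir2.1 were loaded with fluo-3/AM, then treated with compound for 75 s in 10 mM CaCl2 HEPES buffer (pH 7.4) before 75 mM KCl depolarisation. The Ca2+ signal was read as the […] area, giving % inhibition versus untreated control.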

T1 sequence (O43497 whole entry): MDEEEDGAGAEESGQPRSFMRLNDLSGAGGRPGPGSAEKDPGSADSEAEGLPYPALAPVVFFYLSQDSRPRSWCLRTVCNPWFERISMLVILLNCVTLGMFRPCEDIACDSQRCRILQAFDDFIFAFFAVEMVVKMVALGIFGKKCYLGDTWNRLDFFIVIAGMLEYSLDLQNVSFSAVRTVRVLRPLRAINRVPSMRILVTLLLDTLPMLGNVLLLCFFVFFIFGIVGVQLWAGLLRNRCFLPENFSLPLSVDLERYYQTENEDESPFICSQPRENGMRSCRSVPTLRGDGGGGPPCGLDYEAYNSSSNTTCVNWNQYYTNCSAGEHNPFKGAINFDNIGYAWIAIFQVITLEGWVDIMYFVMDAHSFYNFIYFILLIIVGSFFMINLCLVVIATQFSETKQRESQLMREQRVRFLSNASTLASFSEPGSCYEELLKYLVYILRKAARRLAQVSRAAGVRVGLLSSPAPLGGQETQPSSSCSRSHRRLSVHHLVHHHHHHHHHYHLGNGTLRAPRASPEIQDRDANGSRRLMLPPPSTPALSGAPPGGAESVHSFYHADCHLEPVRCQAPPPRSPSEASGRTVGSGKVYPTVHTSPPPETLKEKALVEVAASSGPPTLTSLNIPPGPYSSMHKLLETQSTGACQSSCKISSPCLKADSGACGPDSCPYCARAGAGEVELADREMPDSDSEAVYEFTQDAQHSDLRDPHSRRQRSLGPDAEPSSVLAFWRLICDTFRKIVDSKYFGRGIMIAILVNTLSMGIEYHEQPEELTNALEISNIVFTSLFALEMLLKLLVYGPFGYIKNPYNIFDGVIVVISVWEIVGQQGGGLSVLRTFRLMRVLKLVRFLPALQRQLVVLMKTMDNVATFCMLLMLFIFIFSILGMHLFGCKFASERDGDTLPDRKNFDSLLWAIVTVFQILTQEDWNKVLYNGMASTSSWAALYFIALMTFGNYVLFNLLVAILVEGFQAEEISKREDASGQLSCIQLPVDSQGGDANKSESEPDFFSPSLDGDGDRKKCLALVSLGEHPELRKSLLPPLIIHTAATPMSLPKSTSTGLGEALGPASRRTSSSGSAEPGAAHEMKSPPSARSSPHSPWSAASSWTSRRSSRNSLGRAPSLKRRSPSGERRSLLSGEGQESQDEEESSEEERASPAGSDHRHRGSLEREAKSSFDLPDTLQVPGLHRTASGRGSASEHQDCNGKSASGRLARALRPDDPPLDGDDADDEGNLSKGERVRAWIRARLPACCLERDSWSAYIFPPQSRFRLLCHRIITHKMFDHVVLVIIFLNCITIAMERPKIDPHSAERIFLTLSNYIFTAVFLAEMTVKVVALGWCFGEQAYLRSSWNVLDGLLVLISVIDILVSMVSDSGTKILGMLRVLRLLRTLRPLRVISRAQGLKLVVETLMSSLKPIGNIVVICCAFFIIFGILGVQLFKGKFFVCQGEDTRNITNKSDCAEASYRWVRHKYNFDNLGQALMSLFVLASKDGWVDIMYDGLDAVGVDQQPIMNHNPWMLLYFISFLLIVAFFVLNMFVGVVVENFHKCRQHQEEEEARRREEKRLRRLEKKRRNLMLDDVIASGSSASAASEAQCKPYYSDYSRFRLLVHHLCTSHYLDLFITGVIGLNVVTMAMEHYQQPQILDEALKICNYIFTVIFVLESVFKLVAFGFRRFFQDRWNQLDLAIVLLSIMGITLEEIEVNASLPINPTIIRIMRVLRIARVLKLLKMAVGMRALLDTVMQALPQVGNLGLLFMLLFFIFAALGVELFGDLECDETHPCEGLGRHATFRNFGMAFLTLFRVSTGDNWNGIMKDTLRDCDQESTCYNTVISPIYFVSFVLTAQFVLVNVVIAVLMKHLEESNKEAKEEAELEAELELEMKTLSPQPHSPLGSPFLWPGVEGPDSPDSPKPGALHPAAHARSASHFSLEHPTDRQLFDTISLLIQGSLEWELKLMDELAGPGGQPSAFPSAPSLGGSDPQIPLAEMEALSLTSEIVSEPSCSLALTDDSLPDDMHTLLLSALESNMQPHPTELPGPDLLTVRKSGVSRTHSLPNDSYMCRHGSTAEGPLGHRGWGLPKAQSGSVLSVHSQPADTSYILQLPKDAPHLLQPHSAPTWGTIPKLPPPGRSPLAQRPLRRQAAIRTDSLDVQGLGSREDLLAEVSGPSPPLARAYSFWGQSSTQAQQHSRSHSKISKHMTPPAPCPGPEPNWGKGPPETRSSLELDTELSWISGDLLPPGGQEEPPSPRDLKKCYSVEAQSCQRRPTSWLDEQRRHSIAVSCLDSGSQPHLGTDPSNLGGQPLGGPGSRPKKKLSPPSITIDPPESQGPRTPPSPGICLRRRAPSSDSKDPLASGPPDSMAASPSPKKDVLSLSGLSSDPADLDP

Row | IC50 [1] [nM] | inhibition at 10 µM [2] [%] | melting point [°C] | SMILES
1 |  | 20.8 | 252.1 | Br.NC(N)=Nc1nc(-c2cc(F)ccc2F)cs1 [KHG24391, 2-(4-(2,5-difluorophenyl)thiazole-2-yl)guanidine hydrobromide]
2 | 780 ± 80 |  |  | NC(N)=Nc1nc(CC(=O)Nc2cc(C(F)(F)F)cc(C(F)(F)F)c2)cs1 [drawing 11]

Further lines, the compound ahead of its results:

Row | SMILES | IC50 [1] [nM] | inhibition at 10 µM [2] [%] | melting point [°C]
3 | NC(N)=Nc1nc(CC(=O)Nc2cc(Cl)cc(Cl)c2)cs1 | 310 ± 220 |  | 
4 | Br.CCc1ccc(-c2csc(N=C(N)N)n2)cc1 [KHG24387, 2-(4-(4-ethylphenyl)thiazole-2-yl)guanidine hydrobromide] |  | 17.1 | 234.8
5 | Br.NC(N)=Nc1nc(-c2cccc(Cl)c2)cs1 [KHG24388, 2-(4-(3-chlorophenyl)thiazole-2-yl)guanidine hydrobromide] |  | 10.8 | 210.4
6 | Br.NC(N)=Nc1nc(-c2ccc(Cl)c(Cl)c2)cs1 [KHG24390, 2-(4-(3,4-dichlorophenyl)thiazole-2-yl)guanidine hydrobromide] |  | 7.32 | 256.3
